Assay results reported in patent publication US10723741B1, “DNA polymerase IIIC inhibitors and use thereof” (Acurx Pharmaceuticals, LLC, priority 2018, dated 2020).
≈ marks a conversion by molar mass, not a printed value.

How the values were obtained:
Type in all cases: cell-based
[1] = test system: Staphylococcus aureus NRS384 (MRSA); assay: Broth microdilution MIC, S. aureus NRS384 (MRSA); set-up: MIC NRS 384 (MRSA): unit not given here; details: broth microdilution, 37° C., 20 hours; for MIC: Staphylococcus aureus, read-out: MIC NRS 384 (MRSA)
Outline: (§1)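 Two-fold dilutions from 64 to 0.0625 μg/ml final, 1% DMSO, were inoculated at ~5.0×10^5 cfu/ml in the strain's test medium and kept 20 h at 37 °C in ambient atmosphere. Colonies were grown on MHA, with S. pneumoniae on blood agar under 5% CO2.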

[2] = test system: Staphylococcus aureus ATCC 29213 (MSSA); assay: Broth microdilution MIC, S. aureus ATCC 29213 (MSSA); details: broth microdilution, 37° C., 20 hours, read-out: MIC S. aureus ATCC 29213 (MSSA)
Outline: as §1

[3] = test system: Enterococcus faecalis ATCC 29212; assay: Broth microdilution MIC, E. faecalis ATCC 29212; details: ATCC29212, broth microdilution, 37° C., 20 hours, read-out: MIC E. faecalis ATCC 29212
Outline: as §1

[4] = test system: Enterococcus faecium ATCC 700221 (VRE); assay: Broth microdilution MIC, E. faecium ATCC 700221 (VRE); set-up: MIC E. faecium ATCC 700221 (VRE): unit: ug/mL; details: broth microdilution, 37° C., 20 hours; for MIC: Enterococcus faecium, read-out: MIC E. faecium ATCC 700221 (VRE)
Outline: as §1

[5] = test system: Streptococcus pneumoniae ATCC 49619; assay: Broth microdilution MIC, S. pneumoniae ATCC 49619; details: ATCC49619, broth microdilution, 37° C., 20 hours, read-out: MIC S. pneumoniae ATCC 49619
Outline: as §1

[6] = test system: Bacillus subtilis ATCC 6633; assay: Broth microdilution MIC, B. subtilis ATCC 6633; details: ATCC6633, broth microdilution, 37° C., 20 hours, read-out: MIC B. subtilis ATCC 6633
Outline: as §1

[7] = test system: Escherichia coli ATCC 25922; assay: Broth microdilution MIC, E. coli ATCC 25922 (MHIIB w & w/o 4 mM EDTA); details: broth microdilution, 37° C., 20 hours; for MIC: Escherichia coli, ATCC25922, without EDTA, read-out: MIC E. coli ATCC 25922; for MIC E. coli ATCC 25922 + 4 mM EDTA: with 4 mM EDTA
Outline: as §1

Row | SMILES | MIC [1] [µg/mL] | MIC [2] [µg/mL] | MIC [3] [µg/mL] | MIC [4] [µg/mL] | MIC [5] [µg/mL] | MIC [6] [µg/mL] | MIC [7] [µg/mL] | MIC E. coli ATCC 25922 + 4 mM EDTA [7] [µg/mL] | MIC NRS 384 (MRSA) [1] | MIC E. faecium ATCC 700221 (VRE) [4]
1 | Cl.O=c1[nH]c(NCc2ccc(Cl)c(Cl)c2)nc2cn(Cn3cncn3)nc12 [Compound 103, 2-((1H-1,2,4-triazol-1-yl)methyl)-5-((3,4-dichlorobenzyl)amino)-2H-pyrazolo[4,3-d]pyrimidin-7(6H)-one hydrochloride] | 64 | 64 | > 64 | 64 | 16 | 32 | > 64 | 64 |  | 
2 | O=c1[nH]c(NCc2ccc(Cl)c(Cl)c2)nc2cnn(CCSCCO)c12 [Compound 104, 5-((3,4-Dichlorobenzyl)amino)-1-(2-((2-hydroxyethyl)thio)ethyl)-1H-pyrazolo[4,3-d]pyrimidin-7(6H)-one] |  | 4 (≈ 9.65 µM) | 4 (≈ 9.65 µM) |  | 4 (≈ 9.65 µM) | 1 (≈ 2.41 µM) | > 64 | >64 | 4/4 | 2/2
3 | O=c1[nH]c(NCc2ccc(Cl)c(Cl)c2)nc2cnn(CC3COCCO3)c12 (stereo not drawn) [Compound 105, 1-((1,4-Dioxan-2-yl)methyl)-5-((3,4-dichlorobenzyl)amino)-1H-pyrazolo[4,3-d]pyrimidin-7(6H)-one] |  | 4 (≈ 9.75 µM) | 8 (≈ 19.5 µM) |  | 4 (≈ 9.75 µM) | 1 (≈ 2.44 µM) | > 64 | >64 | 4/2 | 4/2
4 | COCC(COC)n1ncc2nc(NCc3ccc(Cl)c(Cl)c3)[nH]c(=O)c21 [Compound 106, 5-((3,4-Dichlorobenzyl)amino)-1-(1,3-dimethoxypropan-2-yl)-1H-pyrazolo[4,3-d]pyrimidin-7(6H)-one] | 32 (≈ 77.6 µM) | 64 (≈ 155 µM) | > 64 | 32 (≈ 77.6 µM) | 32 (≈ 77.6 µM) | 32 (≈ 77.6 µM) | > 64 | >64 |  | 
5 | O=c1[nH]c(NCc2ccc(Cl)c(Cl)c2)nc2cnn(C(CO)CO)c12 [Compound 107, 5-((3,4-Dichlorobenzyl)amino)-1-(1,3-dihydroxypropan-2-yl)-1H-pyrazolo[4,3-d]pyrimidin-7(6H)-one] | > 64 | > 64 | > 64 | > 64 | 16 (≈ 41.6 µM) | 32 (≈ 83.3 µM) | > 64 | >64 |  | 
6 | O=c1[nH]c(NCc2ccc(Cl)c(Cl)c2)nc2cnn(CCOC3CCOCC3)c12 [Compound 108, 5-((3,4-Dichlorobenzyl)amino)-1-(2-((tetrahydro-2H-pyran-4-yl)oxy)ethyl)-1H-pyrazolo[4,3-d]pyrimidin-7(6H)-one] |  | 4 (≈ 9.13 µM) | 8 (≈ 18.3 µM) |  | 4 (≈ 9.13 µM) | 2 (≈ 4.56 µM) | > 64 | >64 | 8/4 | 4/2
7 | Cl.O=c1[nH]c(NCc2ccc(Cl)c(Cl)c2)nc2cnn(Cc3ccccn3)c12 [Compound 109, 5-((3,4-Dichlorobenzyl)amino)-1-(pyridin-2-ylmethyl)-1H-pyrazolo[4,3-d]pyrimidin-7(6H)-one hydrochloride] | 64 | > 64 | > 64 | 4 | 4 | 2 | > 64 | >64 |  | 
8 | Cl.O=c1[nH]c(NCc2ccc(Cl)c(Cl)c2)nc2cnn(CCc3cccnc3)c12 [Compound 110, 5-((3,4-Dichlorobenzyl)amino)-1-(2-(pyridin-3-yl)ethyl)-1H-pyrazolo[4,3-d]pyrimidin-7(6H)-one hydrochloride] |  | 4 | 4 |  | 4 | 1 | > 64 | >64 | 2/2 | 2/2
9 | Cl.O=c1[nH]c(NCc2ccc(Cl)c(Cl)c2)nc2cnn(CCc3ccccn3)c12 [Compound 111, 5-((3,4-Dichlorobenzyl)amino)-1-(2-(pyridin-2-yl)ethyl)-1H-pyrazolo[4,3-d]pyrimidin-7(6H)-one hydrochloride] |  | 4 | 8 |  | 4 | 1 | > 64 | >64 | 2/2 | 2/2
10 | Cl.O=c1[nH]c(NCc2ccc(Cl)c(Cl)c2)nc2cnn(Cc3cnccn3)c12 [Compound 112, 5-((3,4-Dichlorobenzyl)amino)-1-(pyrazin-2-ylmethyl)-1H-pyrazolo[4,3-d]pyrimidin-7(6H)-one hydrochloride] |  | 4 | 8 |  | 4 | 1 | > 64 | >64 | 4/4 | 2/2
11 | Cl.O=c1[nH]c(NCc2ccc(Cl)c(Cl)c2)nc2cnn(Cc3cccnc3)c12 [Compound 113, 5-[(3,4-Dichlorophenyl)methylamino]-1-(3-pyridylmethyl)-6H-pyrazolo[4,3-d]pyrimidin-7-one] |  | 4 | 8 |  | 8 | 1 | > 64 | >64 | 4/4 | 2/2
12 | O=c1[nH]c(NCc2ccc(Cl)c(Cl)c2)nc2cnn(Cc3ncccn3)c12 [Compound 114, 5-((3,4-Dichlorobenzyl)amino)-1-(pyrimidin-2-ylmethyl)-1H-pyrazolo[4,3-d]pyrimidin-7(6H)-one] |  | 8 (≈ 19.9 µM) | 16 (≈ 39.8 µM) |  | 4 (≈ 9.94 µM) | 2 (≈ 4.97 µM) | > 64 | 32 | 4/4 | 4/4
13 | O=c1[nH]c(NCc2ccc(Cl)c(Cl)c2)nc2cnn(CCOCCOCCO)c12 [Compound 115, 5-((3,4-Dichlorobenzyl)amino)-1-(2-(2-(2-hydroxyethoxy)ethoxy)ethyl)-1H-pyrazolo[4,3-d]pyrimidin-7(6H)-one] | 32 (≈ 72.3 µM) | 32 (≈ 72.3 µM) | 32 (≈ 72.3 µM) | 8 (≈ 18.1 µM) | 16 (≈ 36.2 µM) | 8 (≈ 18.1 µM) | > 64 | >64 |  | 
14 | O=c1[nH]c(NCc2ccc(Cl)c(Cl)c2)nc2cnn(CCOCCOCCOCCO)c12 [Compound 116, 5-((3,4-Dichlorobenzyl)amino)-1-(2-(2-(2-(2-hydroxyethoxy)ethoxy)ethoxy)ethyl)-1H-pyrazolo[4,3-d]pyrimidin-7(6H)-one] | 32 (≈ 65.8 µM) | 64 (≈ 132 µM) | 16 (≈ 32.9 µM) | 8 (≈ 16.4 µM) | 8 (≈ 16.4 µM) | 8 (≈ 16.4 µM) | > 64 | >64 |  | 
15 | O=c1[nH]c(NCc2ccc(Cl)c(Cl)c2)nc2cnn(CCc3ncccn3)c12 [Compound 117, 5-((3,4-Dichlorobenzyl)amino)-1-(2-(pyrimidin-2-yl)ethyl)-1H-pyrazolo[4,3-d]pyrimidin-7(6H)-one] | 8 (≈ 19.2 µM) | 8 (≈ 19.2 µM) | 8 (≈ 19.2 µM) | 4 (≈ 9.61 µM) | 4 (≈ 9.61 µM) | 2 (≈ 4.8 µM) | > 64 | >64 |  | 
